Results on 19 compounds are retold here after ChEMBL document CHEMBL1134726, “SAR studies of novel 5-substituted 2-arylindoles as nonpeptidyl GnRH receptor antagonists” (Bioorg Med Chem Lett, 2001).

The target in the test is T1, Gonadotropin-releasing hormone receptor (Rattus norvegicus, UniProt P30969).
T1 sequence (P30969 whole entry): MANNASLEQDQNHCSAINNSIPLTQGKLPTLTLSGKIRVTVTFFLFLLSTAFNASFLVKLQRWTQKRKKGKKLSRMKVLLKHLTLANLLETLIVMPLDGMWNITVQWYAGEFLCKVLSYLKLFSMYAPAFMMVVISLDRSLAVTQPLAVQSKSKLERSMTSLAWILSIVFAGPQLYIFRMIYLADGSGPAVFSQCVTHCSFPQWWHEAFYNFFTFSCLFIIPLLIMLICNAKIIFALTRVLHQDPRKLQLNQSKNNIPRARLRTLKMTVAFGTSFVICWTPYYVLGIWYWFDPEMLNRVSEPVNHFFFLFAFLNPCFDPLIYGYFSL
Nature of the test: Binding affinity to rat Gonadotropin-releasing hormone receptor.
Usually IC50 stands for the concentration that inhibits the measured activity by half. Read a low IC50 as higher potency. Take `CCNC(=O)Oc1ccc2[nH]c(-c3cc(C)cc(C)c3)c(CCNCCCCc3ccc(O)cc3)c2c1`: the IC50 is 16 nM.

Take `Cc1cc(C)cc(-c2[nH]c3ccc(OC(=O)N4CCCCC4)cc3c2CCNCCCCc2ccc(O)cc2)c1`: the IC50 amounted to 32 nM.

`Cc1cc(C)cc(-c2[nH]c3ccc(OC(=O)N4CCNCC4)cc3c2CCNCCCCc2ccc(O)cc2)c1` yielded a concentration for half-maximal inhibition (IC50) of 100 nM.

In the case of `CCCS(=O)(=O)N1CCN(C(=O)Oc2ccc3[nH]c(-c4cc(C)cc(C)c4)c(CCNCCCCc4ccc(O)cc4)c3c2)CC1`, the half-maximal inhibitory concentration (IC50) came to 12 nM. Then `Cc1cc(C)cc(-c2[nH]c3ccc(OCc4ccccc4)cc3c2CCNCCCCc2ccc(O)cc2)c1`, with 100 nM; and `Cc1cc(C)cc(-c2[nH]c3ccc(OC(=O)N4CCN(C)CC4)cc3c2CCNCCCCc2ccc(O)cc2)c1`, with 25 nM; and `CCOC(=O)N1CCN(C(=O)Oc2ccc3[nH]c(-c4cc(C)cc(C)c4)c(CCNCCCCc4ccc(O)cc4)c3c2)CC1`, with 32 nM. `Cc1cc(C)cc(-c2[nH]c3ccc(OC(=O)N4CCOCC4)cc3c2CCNCCCCc2ccc(O)cc2)c1` registered an IC50 of 20 nM. Then `Cc1cc(C)cc(-c2[nH]c3ccc(OC(=O)N4CCN(S(=O)(=O)C(C)C)CC4)cc3c2CCNCCCCc2ccc(O)cc2)c1`, with 7 nM; and `Cc1cc(C)cc(-c2[nH]c3ccc(OC(=O)N4CCN(S(C)(=O)=O)CC4)cc3c2CCNCCCCc2ccc(O)cc2)c1`, with 6 nM. Turning to `COc1ccc2[nH]c(-c3cc(C)cc(C)c3)c(CCNCCCCc3ccc(O)cc3)c2c1`, the concentration for half-maximal inhibition (IC50) was determined as 40 nM. As to `Cc1cc(C)cc(-c2[nH]c3ccc(OC(=O)N4CCN(CC(N)=O)CC4)cc3c2CCNCCCCc2ccc(O)cc2)c1`, the IC50 turned out to be 27 nM. As to `CC(=O)N1CCN(C(=O)Oc2ccc3[nH]c(-c4cc(C)cc(C)c4)c(CCNCCCCc4ccc(O)cc4)c3c2)CC1`, the IC50 came to 30 nM. Under `CNC(=O)Oc1ccc2[nH]c(-c3cc(C)cc(C)c3)c(CCNCCCCc3ccc(O)cc3)c2c1` stands 30 nM; under `CCCC(=O)N1CCN(C(=O)Oc2ccc3[nH]c(-c4cc(C)cc(C)c4)c(CCNCCCCc4ccc(O)cc4)c3c2)CC1`, 30 nM. `Cc1cc(C)cc(-c2[nH]c3ccc(OC(=O)N(C)C)cc3c2CCNCCCCc2ccc(O)cc2)c1` showed an IC50 of 30 nM. Regarding `CCCNC(=O)Oc1ccc2[nH]c(-c3cc(C)cc(C)c3)c(CCNCCCCc3ccc(O)cc3)c2c1`, the IC50 was 30 nM. This lies in the double-digit nanomolar range.

In turn, `CCC(=O)N1CCN(C(=O)Oc2ccc3[nH]c(-c4cc(C)cc(C)c4)c(CCNCCCCc4ccc(O)cc4)c3c2)CC1` displayed an IC50 of 15 nM. `CCS(=O)(=O)N1CCN(C(=O)Oc2ccc3[nH]c(-c4cc(C)cc(C)c4)c(CCNCCCCc4ccc(O)cc4)c3c2)CC1` showed an IC50 of 4 nM.
